According to the supplement of paper PMC11208160:

Assay: recombinant barcode read abundance after kanamycin selection (control-corrected) (log10(CPM+1)); higher = more efficient recombination; sequences stand for … in AGTGCAGAGAAAATCGGCCAGTTTTCTCTGCCTGCAGTCCGCATGCCGT…AGATTTATGCAGCGGACTGCCTTTCTCCCAAAGTGATAAACCGGACAGTATCATGGACCGGTTTTCCCGGTAATCCGTATTTGCAAGGTTGGTTTCACT; site = the 11-nt target
Procedure, shortened: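 Pooled oligos, each joining a target to an IS621 bridge RNA target-binding loop, were cloned and co-electroporated with a donor plasmid into E. coli. Selective plates carried chloramphenicol/ampicillin/kanamycin and 0.1 mM IPTG, while chloramphenicol/ampicillin LB agar served as control, with two replicates of each. Recombination efficiency rests on averaged, control-corrected counts per million of barcodes at recombinant junctions, shown as log10(CPM+1).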
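Note: IS621 recombinase and bridge RNA in Escherichia coli cells.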

Row | Sequence | recombinant barcode read abundance (log10)
1 | GTTAGAACTTGGGTTCTAACCTGTTGCTT (site CCATTGTCTCG) | 0.0117
2 | GTTAGAACTTGGGTTCTAACCTGTTGCTT (site GTTAGAACTAA) | 0.123
3 | GTTCAAACTTGGGTTCTAACCTGTTGCAT (site ATTCAAACTAG) | 0.245
4 | GTTCAAACTTGGGTTCTAACCTGTTGCAT (site GTTCAAACTAT) | 1.2
5 | GTTCAGACTTGGGTTCTAACCTGTTGCCT (site GTACAGACTAG) | 1.15
6 | GTTCAGACTTGGGTTCTAACCTGTTGCCT (site GTCCAGACTAG) | 0.948
7 | GTTCAGACTTGGGTTCTAACCTGTTGCCT (site GTGCAGACTAG) | 0.0632
8 | GTTCAGACTTGGGTTCTAACCTGTTGCCT (site GTTCAGACTAG) | 1.58
9 | GTTCCCTCTTGGGTTCTAACCTGTTGCTT (site GCTCACTCTAA) | 0.245
10 | GTTCCCTCTTGGGTTCTAACCTGTTGCTT (site GTTCCCTCTAA) | 1.9
11 | GTTCGGACTTGGGTTCTAACCTGTTGCGG (site GATCGGACTCC) | 0.634
12 | GTTCGGACTTGGGTTCTAACCTGTTGCGG (site GTTCGGACTCC) | 2.69
13 | GTTGCGGCTTGGGTTCTAACCTGTTGCCT (site GTTACGGCTAG) | 0.44
14 | GTTGCGGCTTGGGTTCTAACCTGTTGCCT (site GTTCCGGCTAG) | 0.0471
15 | GTTGCGGCTTGGGTTCTAACCTGTTGCCT (site GTTGCGGCTAG) | 0.898
16 | GTTGCGGCTTGGGTTCTAACCTGTTGCCT (site GTTTCGGCTAG) | 0.34
17 | GTTGGAGCTTGGGTTCTAACCTGTTGCAG (site GTTGGAGCTCT) | 2.24
18 | GTTGGAGCTTGGGTTCTAACCTGTTGCAG (site TATGGAGCTCT) | 0.146
19 | GTTGGAGCTTGGGTTCTAACCTGTTGCCT (site GTTAGAGCTAG) | 1.97
20 | GTTGGAGCTTGGGTTCTAACCTGTTGCCT (site GTTCGAGCTAG) | 0.487
21 | GTTGGAGCTTGGGTTCTAACCTGTTGCCT (site GTTGGAGCTAG) | 2.35
22 | GTTGGAGCTTGGGTTCTAACCTGTTGCCT (site GTTTGAGCTAG) | 0.304

Row | Sequence | recombinant barcode read abundance (log10)
23 | GTTTAGTCTTGGGTTCTAACCTGTTGCCT (site GTTTAATCTAG) | 0.159
24 | GTTTAGTCTTGGGTTCTAACCTGTTGCCT (site GTTTAGTCTAG) | 1.01
25 | GTTTATACTTGGGTTCTAACCTGTTGCGT (site GATGATACTAC) | 0.0203
26 | GTTTATACTTGGGTTCTAACCTGTTGCGT (site GTTTATACTAC) | 0.749
27 | GTTTCAACTTGGGTTCTAACCTGTTGCCA (site CAACACCCTAT) | 0.0582
28 | GTTTCAACTTGGGTTCTAACCTGTTGCCA (site GTTTCAACTTG) | 0.061
29 | GTTTCAACTTGGGTTCTAACCTGTTGCGT (site AAGAACTCTCG) | 0.18
30 | GTTTCAACTTGGGTTCTAACCTGTTGCGT (site GTTTCAACTAC) | 0.729
31 | GTTTCCTCTTGGGTTCTAACCTGTTGCCG (site GGATCCTCTCG) | 0.251
32 | GTTTCCTCTTGGGTTCTAACCTGTTGCCG (site GTTTCCTCTCG) | 0.78
33 | GTTTGACCTTGGGTTCTAACCTGTTGCTT (site GTTTGACCTAA) | 0.532
34 | GTTTGACCTTGGGTTCTAACCTGTTGCTT (site GTTTGCCCTAA) | 0.229
35 | GTTTGACCTTGGGTTCTAACCTGTTGCTT (site GTTTGGCCTAA) | 0.171
36 | GTTTGACCTTGGGTTCTAACCTGTTGCTT (site GTTTGTCCTAA) | 0.0874
37 | GTTTGGACTTGGGTTCTAACCTGTTGCTA (site GTTTGGACTCA) | 0.178
38 | GTTTGGACTTGGGTTCTAACCTGTTGCTA (site GTTTGGACTTA) | 0.904
39 | GTTTGGTCTTGGGTTCTAACCTGTTGCCT (site GTTTGATCTAG) | 0.285
40 | GTTTGGTCTTGGGTTCTAACCTGTTGCCT (site GTTTGCTCTAG) | 0.0727
41 | GTTTGGTCTTGGGTTCTAACCTGTTGCCT (site GTTTGGTCTAG) | 0.405
42 | GTTTGGTCTTGGGTTCTAACCTGTTGCCT (site GTTTGTTCTAG) | 0.0972
43 | GTTTGTTCTTGGGTTCTAACCTGTTGCCT (site GTTTGATCTAG) | 0.0239
44 | GTTTGTTCTTGGGTTCTAACCTGTTGCCT (site GTTTGCTCTAG) | 0.0623

Row | Sequence | recombinant barcode read abundance (log10)
45 | GTTTGTTCTTGGGTTCTAACCTGTTGCCT (site GTTTGGTCTAG) | 0.237
46 | GTTTGTTCTTGGGTTCTAACCTGTTGCCT (site GTTTGTTCTAG) | 0.254
47 | TAAACAGCTTGGGTTCTAACCTGTTGCCT (site TAAACAGCTAG) | 0.0976
48 | TAAACAGCTTGGGTTCTAACCTGTTGCCT (site TACACAGCTAG) | 0.00929
49 | TAAACAGCTTGGGTTCTAACCTGTTGCCT (site TAGACAGCTAG) | 0.171
50 | TAAACAGCTTGGGTTCTAACCTGTTGCCT (site TATACAGCTAG) | 0.0779
51 | TAAAGAGCTTGGGTTCTAACCTGTTGCGG (site TAAAGAGCTCC) | 1.57
52 | TAAAGAGCTTGGGTTCTAACCTGTTGCGG (site TACAGAGCTCC) | 0.153
53 | TAAAGAGCTTGGGTTCTAACCTGTTGCGG (site TAGAGAGCTCC) | 0.109
54 | TAAAGAGCTTGGGTTCTAACCTGTTGCGG (site TATAGAGCTCC) | 0.236
55 | TAACCCACTTGGGTTCTAACCTGTTGCCT (site TAACCCACTAG) | 1.1
56 | TAACCCACTTGGGTTCTAACCTGTTGCCT (site TTACGCACTAG) | 0.334
57 | TAACCTACTTGGGTTCTAACCTGTTGCAT (site TAACATACTAT) | 0.0358
58 | TAACCTACTTGGGTTCTAACCTGTTGCAT (site TAACCTACTAT) | 0.802
59 | TAACCTACTTGGGTTCTAACCTGTTGCAT (site TAACGTACTAT) | 0.169
60 | TAACCTACTTGGGTTCTAACCTGTTGCAT (site TAACTTACTAT) | 0.0519
61 | TAACGATCTTGGGTTCTAACCTGTTGCAT (site TAACGATCTAT) | 0.497
62 | TAACGATCTTGGGTTCTAACCTGTTGCAT (site TAACGGTCTAA) | 0.0405
63 | TAACGGTCTTGGGTTCTAACCTGTTGCTT (site TAACGATCTAT) | 0.44
64 | TAACGGTCTTGGGTTCTAACCTGTTGCTT (site TAACGGTCTAA) | 1.09
65 | TAACGTACTTGGGTTCTAACCTGTTGCGG (site TAACGTACTCC) | 1.41
66 | TAACGTACTTGGGTTCTAACCTGTTGCGG (site TAACGTCCTAC) | 0.113

Row | Sequence | recombinant barcode read abundance (log10)
67 | TAACTCTCTTGGGTTCTAACCTGTTGCCT (site TAACTCTCTAG) | 1.05
68 | TAACTCTCTTGGGTTCTAACCTGTTGCCT (site TCACTCTCTAG) | 0.0372
69 | TAACTCTCTTGGGTTCTAACCTGTTGCCT (site TGACTCTCTAG) | 0.0157
70 | TAACTCTCTTGGGTTCTAACCTGTTGCCT (site TTACTCTCTAG) | 0.145
71 | TAACTGTCTTGGGTTCTAACCTGTTGCTT (site CCGTCTACTTG) | 0.121
72 | TAACTGTCTTGGGTTCTAACCTGTTGCTT (site TAACTGTCTAA) | 1.74
73 | TAACTTACTTGGGTTCTAACCTGTTGCCT (site TAACTTACTAG) | 0.185
74 | TAACTTACTTGGGTTCTAACCTGTTGCCT (site TAGCTTACTCG) | 0.0408
75 | TAAGCCTCTTGGGTTCTAACCTGTTGCTG (site TAAGCCTCTCA) | 2.54
76 | TAAGCCTCTTGGGTTCTAACCTGTTGCTG (site TAAGCTACTCA) | 0
77 | TAAGGTCCTTGGGTTCTAACCTGTTGCTA (site GGAGGTCCTTA) | 0.0326
78 | TAAGGTCCTTGGGTTCTAACCTGTTGCTA (site TAAGGTCCTTA) | 1.81
79 | TAATCGGCTTGGGTTCTAACCTGTTGCCT (site TAATCGACTAG) | 0.0571
80 | TAATCGGCTTGGGTTCTAACCTGTTGCCT (site TAATCGCCTAG) | 0.0352
81 | TAATCGGCTTGGGTTCTAACCTGTTGCCT (site TAATCGGCTAG) | 0.453
82 | TAATCGGCTTGGGTTCTAACCTGTTGCCT (site TAATCGTCTAG) | 0.111
83 | TAATCGTCTTGGGTTCTAACCTGTTGCCT (site TAATCGACTAG) | 0.0844
84 | TAATCGTCTTGGGTTCTAACCTGTTGCCT (site TAATCGCCTAG) | 0.0275
85 | TAATCGTCTTGGGTTCTAACCTGTTGCCT (site TAATCGGCTAG) | 0.0826
86 | TAATCGTCTTGGGTTCTAACCTGTTGCCT (site TAATCGTCTAG) | 1.84
